The values that follow come from patent US5196094A, “Separation of 1,1,1-trichloroethane from the lower alcohols by extractive distillation” (priority 1991, dated 1993).

The structures appear in SMILES notation.

The nature of data set [1]: Vapor-liquid equilibrium still, separation of 1,1,1-trichloroethane from ethanol. The format is physicochemical. The note with it: 1,1,1-trichloroethane from ethanol.
Data set [2] can be described thus: Vapor-liquid equilibrium still, separation of 1,1,1-trichloroethane from n-propanol. The format is physicochemical.
Data set [3] in a line: Vapor-liquid equilibrium still, separation of 1,1,1-trichloroethane from t-butanol. The class given is physicochemical.
For data set [4] the following is noted: minimum boiling azeotrope with 1,1,1-trichloroethane; cited from earlier work.
The nature of data set [5]: Vapor-liquid equilibrium still, separation of 1,1,1-trichloroethane from methanol. The format is physicochemical.
A short description of data set [6]: Vapor-liquid equilibrium still, separation of 1,1,1-trichloroethane from 2-butanol. The format is physicochemical.
The nature of data set [7]: Vapor-liquid equilibrium still, separation of 1,1,1-trichloroethane from isopropanol. The class given is physicochemical.
[8] abbreviates: 1,1,1-trichloroethane from n-propanol, vapor-liquid equilibrium still.
Setting [9] is: 1,1,1-trichloroethane from t-butanol.
The mark [10] stands for this setting: 1,1,1-trichloroethane from methanol, vapor-liquid equilibrium still.
[11] abbreviates: 1,1,1-trichloroethane from 2-butanol, vapor-liquid equilibrium still.
[12] abbreviates: * Brings out t-Butanol as Overhead.

In the case of `CCCCO` [1-Butanol], the “Relative Volatility” value in data set [1] is on record as 3.5; in data set [2] (setting [8]), 3.9; in data set [3] (setting [9]), 2.7.
For the compound `CCC(C)O` (stereo not shown) [2-Butanol], in data set [1], the “Relative Volatility” value is 2.0. Moreover, in data set [4], the “1,1,1-trichloroethane content of azeotrope” value (“1,1,1-trichloroethane content” below) was 90% and the azeotrope boiling point was 70.5 °C.
On to `CCCCOCCOCCO` [Diethylene glycol butyl ether], for which the “Relative Volatility” value in data set [5] (setting [10]) was determined as 2.1; in data set [2] (setting [8]), 2.8; in data set [6], 2.7; in data set [3] (setting [9]) it was 1.5.
As to `CCOCCOCCO` [Diethylene glycol ethyl ether], the “Relative Volatility” value in data set [5] turned out to be 2.9; in data set [1] it was 1.2; in data set [6] (setting [11]), 2.8; in data set [3] (setting [9]), 1.4.
Turning to `CCCCCCOCCOCCO` [Diethylene glycol hexyl ether], the “Relative Volatility” value worked out at 4.2 in data set [5] (setting [10]), 2.0 in data set [2] (setting [8]), 2.3 in data set [6] (setting [11]) and 1.5 in data set [3] (setting [9]).
With `COCCOCCO` [Diethylene glycol methyl ether], the “Relative Volatility” value in data set [5] (setting [10]) is on record as 3.3; in data set [1] it was 3.3; in data set [2], 2.7; in data set [6], 3.0; in data set [3] (setting [9]) it was 2.2.
On to `CN(C)C=O` [Dimethylformamide], for which the “Relative Volatility” value in data set [5] came out at 2.8; in data set [2], 2.8; in data set [7], 1.55; in data set [6], 2.8.
As to `O=C1OCCO1` [Ethylene carbonate], the “Relative Volatility” value in data set [5] (setting [10]) is reported as 3.3; in data set [1] it was 3.2; in data set [6] (setting [11]), 2.8; in data set [3] (setting [9]), 1.3.
Consider `CCCCOCCOC(C)=O` [Ethylene glycol butyl ether acetate], for which the “Relative Volatility” value is 2.1 in data set [5] (setting [10]), 1.2 in data set [1], 1.3 in data set [7] and 1.8 in data set [6].
With `CCCCOCCO` [Ethylene glycol butyl ether], the “Relative Volatility” value in data set [5] (setting [10]) stood at 3.2; in data set [2] (setting [8]), 2.0; in data set [6] (setting [11]), 2.8; in data set [3] (setting [9]), 1.7.
For the compound `CC(=O)OCCOC(C)=O` [Ethylene glycol diacetate], the “Relative Volatility” value in data set [1] came to 1.7; in data set [2], 1.7; in data set [3] (setting [9]), 1.3.
In the case of `CCOCCO` [Ethylene glycol ethyl ether], the “Relative Volatility” value in data set [1] was determined as 2.5; in data set [2] it was 3.6; in data set [6] it was 3.1; in data set [3] (setting [9]), 2.2.
For `COCCO` [Ethylene glycol methyl ether] the same measures were 1.95, 4.4, 4.5 and 3.1.
Take `OCCOc1ccccc1` [Ethylene glycol phenyl ether]: the “Relative Volatility” value in data set [5] was 3.1; in data set [2] it was 2.5; in data set [6] (setting [11]), 2.0; in data set [3] (setting [9]), 1.3.
`CCCCCCO` [Hexyl alcohol]: the “Relative Volatility” value in data set [2] stood at 2.5; in data set [3] (setting [12]) it was 1.2.
On to `CC(C)CCO` [Isoamyl alcohol], for which the “Relative Volatility” value is given as 2.2 in data set [5], 3.6 in data set [2], 1.6 in data set [6] and 3.0 in data set [3] (setting [9]).
As for `CC(C)CO` [Isobutanol], the “Relative Volatility” value in data set [1] is 1.35; in data set [2], 2.2; in data set [3] (setting [9]), 1.2.
For `CC1=CC(=O)CC(C)(C)C1` [Isophorone], the “Relative Volatility” value in data set [1] came out at 1.55; in data set [6] (setting [11]) it was 2.0; in data set [3] (setting [9]), 1.4.
For `COC(=O)c1ccccc1O` [Methyl salicylate], the “Relative Volatility” value in data set [1] is given as 1.55; in data set [2], 1.3; in data set [7] (* Brings Isopropanol out as Overhead, vapor-liquid equilibrium still), 1.45; in data set [6], 1.3; in data set [3] (setting [12]) it was 1.3.
As for `CC1COC(=O)O1` (stereo not shown) [Propylene carbonate], the “Relative Volatility” value was determined as 2.2 in data set [1], 2.0 in data set [2] (setting [8]), 2.4 in data set [6] (setting [11]) and 1.5 in data set [3] (setting [9]).
As for `CC(C)COCC(C)O` (stereo not shown) [Propylene glycol isobutyl ether], the “Relative Volatility” value in data set [5] turned out to be 2.5; in data set [6] (setting [11]), 2.4; in data set [3] (setting [9]) it was 1.4.
Turning to `COCC(C)O` (stereo not shown) [Propylene glycol methyl ether], the “Relative Volatility” value was 3.1 in data set [5] (setting [10]); 2.0 in data set [1]; 4.2 in data set [2] (setting [8]); 2.3 in data set [7] (1,1,1-trichloroethane from isopropanol, vapor-liquid equilibrium still); 3.9 in data set [6] (setting [11]); 1.7 in data set [3] (setting [9]).
For the compound `CC(O)COc1ccccc1` (stereo not shown) [Propylene glycol phenyl ether], the “Relative Volatility” value in data set [5] was found to be 3.1; in data set [2] (setting [8]), 3.4; in data set [7] it was 1.6; in data set [6] (setting [11]) it was 2.4.
For `O=S1(=O)CCCC1` [Sulfolane], the “Relative Volatility” value in data set [1] is 2.2; in data set [7], 1.4; in data set [6], 2.7; in data set [3] (setting [9]), 1.4.
Consider `CCO` [ethanol], for which, in data set [4], the “1,1,1-trichloroethane content” value was 75% and the azeotrope boiling point is 63 °C.
Turning to `CC(C)O` [isopropanol], the “1,1,1-trichloroethane content” value in data set [4] is 80%.
For the compound `CO` [methanol], in data set [4], the “1,1,1-trichloroethane content” value is recorded as 20% and the azeotrope boiling point is 61 °C.
In the case of `CCCO` [n-propanol], in data set [4], the “1,1,1-trichloroethane content” value is 85%.
For the compound `CC(C)(C)O` [t-butanol], in data set [4], the “1,1,1-trichloroethane content” value is 80% and the azeotrope boiling point was 66 °C.
